Key:
RSV, Long strain = experiment: virus titer Reduction (VTR) assay, progeny virus TCID50 in HEp-2 cells; type: cell-based, respiratory syncytial virus (RSV); conditions: human respiratory syncytial virus, 48 h; for log reduction at 3 µg/mL: 3 ug/ml compound, read-out: TCID-50 Reduction @ 3 ug/ml; for log reduction at 6 µg/mL: 6 ug/ml compound, read-out: TCID-50 Reduction 6 @ ug/ml; for log reduction at 12 µg/mL: 12 ug/ml compound, read-out: TCID-50 Reduction 12 @ ug/ml; for log reduction at 25 µg/mL: 25 ug/ml compound, read-out: TCID-50 Reduction 25 @ ug/ml; for log reduction at 5 µg/mL: 5 ug/ml compound, read-out: TCID-50 Reduction @ 5 ug/ml; for log reduction at 50 µg/mL: 50 ug/ml compound, read-out: TCID-50 Reduction @ 50 ug/ml
Protocol: Four concentrations of each compound were evaluated (Table 3). Briefly, the four concentrations of test compounds, HEp-2 cells (8×10^3 per well) and RSV, Long strain (MOI=0.9) were plated in 96 well microtiter plates. The plates were incubated for 48 hours. Fifteen (15) μl of 10-fold serial dilution of progeny virus containing medium from respective samples (test compound treated or untreated) was transferred to infect fresh HEp-2 cells (2×10^3 cells per well) in a 384 well format. Plates were incubated for an additional 6 days and luminescence was measured using Cell Titer-Glo reagent (Promega Inc.) to determine cell viability. […] A well showing lesser than 50% cell viability was regarded as positive for virus infection. Four replicates for each virus dilution were analyzed and the number of virus positive wells (out of 4) was plotted versus the dilution. TCID50 was calculated to be the dilution that produced two positive wells out of four using ActivityBase software (IDBS, Inc, Guilford, UK).

[1] = tested on: respiratory syncytial virus (RSV) strain Long; experiment: microbe, parasite or virus in culture; conditions: human respiratory syncytial virus, HEp-2, 144 h
Protocol: The assay measures RSV virus-induced CPE in HEp-2 cells using cell viability as the end point.
Two vials of RSV (strain Long) containing 1×10^7 pfu/mL was thawed using an Eppendorf thermomixer for 13 min at 15° C., with shaking at 350 rpm. […] The cells were incubated for 18-20 h at 37° C., 5% CO2, 90% relative humidity. The medium was aspirated and the cells washed with 10 mL PBS without Mg^2+ or Ca^2+. Cells were harvested from flasks using 0.25% trypsin-EDTA. The cells were resuspended in a freezing medium of 95% fetal calf serum and 5% DMSO to a final cell density of 2×10^6 cells/mL. One mL aliquots of this virus infected cell suspension were dispensed to cryovials and cells were rate frozen to −80° C. Frozen infected cells were then transferred to −150° C. for long term storage.
Test compounds were evaluated by measuring their antiviral activity, cell toxicity, and selectivity. Test compounds were serially diluted in a plate to plate matrix or “stacked plate” matrix. All 320 compounds in a source plate were diluted together resulting in a 10 point dose response dilution series. It was visualized as a serial dilution series proceeding vertically through a stack of plates with the high dose plate on top and the low dose plate on the bottom.
Cells were harvested and resuspended to 80,000 cells per ml in Complete DMEM/F12.
Cells were thawed in a room temperature water bath with gentle agitation. The tube was inverted 5-10. Cells were diluted to 80,000 cells per ml by adding the contents of the vial to 24 ml of cold (4° C.) media.
Twenty five ul of uninfected HEp-2 cells were plated in the cell control wells. Frozen infected cells were combined with uninfected HEp-2 cells at a 1:100 ratio. Twenty five ul of the cell mixture was added to the virus control and compound wells. All cell plating was conducted using a Matrix WellMate and cells were maintained at room temperature with stirring during the plating process. The assay plates were incubated for six days at 37° C., 5% CO2 and 90% relative humidity.
Following the six day incubation period, the assay plates were equilibrated to room temperature for 30 min and an equal volume (30 μL) of Cell Titer-Glo reagent (Promega Inc.) was added to each well using a WellMate (Matrix, Hudson, N.H.) and plates were incubated for an additional 10 min at room temperature. At the end of the incubation, luminescence was measured using a Perkin Elmer Envision™ multi-label reader (PerkinElmer, Wellesley, Mass.) with an integration time of 0.1 s.
Data was analyzed using ActivityBase software (IDBS, Inc, Guilford, UK). thirty two control wells containing cells only and twenty four wells containing cells and virus were included on each assay plate and used to calculate Z′ value for each plate and to normalize the data on a per plate basis. […] Eight ribavirin positive control wells were included on each plate for quality control purposes, but were not used in Z′ calculations. […] In the toxicity assay, results are described as percent viability and the calculation is the same.
An EC50 (for CPE inhibition) and IC50 (for cell viability) were calculated for each substance using the 4 parameter Levenburg-Marquardt algorithm with parameter A locked at 0 and parameter B locked at 100. Standard deviation, normalized chi2 and hill slope were used to evaluate the curves. Values were not extrapolated beyond the tested range of concentrations.

[2] = cytotoxicity assay (percent viability of HEp-2 cells, Cell Titer-Glo); conditions: human, HEp-2 cells

Compound | log reduction at 3 µg/mL (RSV, Long strain) | log reduction at 6 µg/mL (RSV, Long strain) | log reduction at 12 µg/mL (RSV, Long strain) | log reduction at 25 µg/mL (RSV, Long strain) | EC50 [1] | CC50 at 6 days [2] | log reduction at 5 µg/mL (RSV, Long strain) | log reduction at 50 µg/mL (RSV, Long strain)
O=C1c2ccccc2C(=O)N1CCCCN(C(=O)c1ccco1)c1ccc(Cl)cc1 [AB00302018] | 1.66 | 2.64 | 2.68 | 3.07 | 3.4 µg/mL | > 25 µg/mL |  | 
O=C(NCCSCc1c(F)cccc1Cl)c1cccc([N+](=O)[O-])c1 [AB00306112] | 1.85 | 1.38 | 1.68 | 2.88 | 5.86 µg/mL | > 25 µg/mL |  | 
Cc1sc(NC(=O)c2c(F)cccc2F)nc1-c1ccccc1 [AB00309154] | 1.54 | 1.38 | 1.42 | 1.88 | 6.41 µg/mL | > 25 µg/mL |  | 
Cc1ccc(-c2csc(N)c2C(N)=O)cc1C [AB00310739] | 1.03 | 1.86 | 1.9 | 2.39 | 6.31 µg/mL | > 25 µg/mL |  | 
COC(=O)c1c(-c2ccccc2)csc1NC(=O)c1ccccc1Cl [AB00311298] | 1.53 | 1.86 | 1.9 | 1.88 | 7.72 µg/mL | > 25 µg/mL |  | 
O=C(c1cc(Cl)ccc1Cl)N1CCCN(C(=O)c2cc(Cl)ccc2Cl)CC1 [AB00311948] | 3.13 |  | 5.56 | 5.9 | 2.32 µg/mL | > 25 µg/mL | 4.64 | 
Cc1ccccc1C(=O)N1CCCN(C(=O)c2ccccc2C)CC1 [AB00312102] | 1.53 | 1.86 | 2.68 | 2.39 | 3.71 µg/mL | > 25 µg/mL |  | 
O=C(Cc1cccs1)Nc1nc2c(s1)CCCC2 [AB00313042] | 3.56 | 5.24 | 5.43 | 6.4 | 1.89 µg/mL | > 25 µg/mL |  | 
Cc1ccc(S(=O)(=O)Nc2ccc(NC(=O)c3c(F)c(F)c(F)c(F)c3F)cc2)cc1 [AB00314111] | 1 | 1.01 | 1.41 | 3.05 | 6.97 µg/mL | > 25 µg/mL |  | 
COC(=O)C1=C(C)N(Cc2ccccc2)C(=O)NC1c1ccc(OC)c(OC)c1 (stereo not drawn) [AB00318114] | 2.42 |  | 5.56 | 5.9 | 3.37 µg/mL | > 25 µg/mL | 4.69 | 
COCc1cc(C)nc(SCC(=O)Nc2ccccc2C(=O)c2ccccc2)c1C#N [AB00341850] | 1 | 2.3 | 2.41 | 2.23 | 2.19 µg/mL | > 25 µg/mL |  | 
COCc1cc(C)nc(SCC(=O)Nc2ccccc2N2CCOCC2)c1C#N [AB00345103] | 1 | 1.31 | 3.2 | 2.86 | 2.18 µg/mL | > 25 µg/mL |  | 
Cc1cc(C)cc(C(=O)Nc2cccc(NC(=O)c3ccccc3C)c2)c1 [AB00353228] | 1.55 | 2.87 | 3.42 | 3.43 | 9.78 µg/mL | > 25 µg/mL |  | 
Oc1ccc(Nc2nc(-c3ccc(O)cc3)cs2)cc1 [AB00355020] | 1 | 1.01 | 2.2 | 2.55 | 2.77 µg/mL | > 25 µg/mL |  | 
Cc1ccn2cc(-c3cccc(NS(=O)(=O)c4ccccc4)c3)nc2c1 [AB00356285] | 1.14 | 1.38 | 2.42 | 3.78 | 4.04 µg/mL | > 25 µg/mL |  | 
CCOC(=O)Cc1ccc(NC(=O)c2cc(SC)ccc2Cl)cc1 [AB00359299] | 1 | 1.22 | 1.99 | 2.83 | 6.76 µg/mL | > 25 µg/mL |  | 

Compound | log reduction at 3 µg/mL (RSV, Long strain) | log reduction at 6 µg/mL (RSV, Long strain) | log reduction at 12 µg/mL (RSV, Long strain) | log reduction at 25 µg/mL (RSV, Long strain) | EC50 [1] | CC50 at 6 days [2] | log reduction at 5 µg/mL (RSV, Long strain) | log reduction at 50 µg/mL (RSV, Long strain)
O=C(Nc1cccc(NC(=O)C23CC4CC(CC(C4)C2)C3)c1)c1ccccc1F [AB00359685] | 1 | 2.13 | 4.4 | 4.94 | 9.42 µg/mL | > 25 µg/mL |  | 
O=C(Cc1c(F)cccc1Cl)Nc1nc2c(s1)CCCC2 [AB00361531] | 1.55 | 1.74 | 3.09 | 3.78 | 0.83 µg/mL | > 25 µg/mL |  | 
COc1ccc(CNCCC(c2ccc(F)cc2)c2ccco2)cc1OC (stereo not drawn) [AB00362846] | 1 | 1.92 | 2.82 | 5.48 | 4.47 µg/mL | > 25 µg/mL |  | 
COc1ccccc1CCNC(=O)c1cc2c(s1)CCCC2 [AB00367930] | 1.82 | 1.04 | 2.68 | 6.4 | 5.77 µg/mL | > 25 µg/mL |  | 
COc1c(C)cccc1C(=O)NCCOc1ccc(Cl)cc1 [AB00368252] | 1 | 1.3 | 1.72 | 4.94 | 9.43 µg/mL | > 25 µg/mL |  | 
O=C(Cc1ccc(Br)cc1)Nc1ccccc1C(=O)O [AB00369287] | 1 | 3.31 | 4.73 | 6.57 | 9.56 µg/mL | > 25 µg/mL |  | 
c1coc(-c2nn3c(Cn4cnc5ccccc54)nnc3s2)c1 [AB00369924] | 1 | 2.62 | 3.22 | 2.61 | 1.71 µg/mL | > 25 µg/mL |  | 
CCOC(=O)C1=C(C)NC(C)=C(C(=O)OCC)C1c1ccc(C#N)cc1 [AB00370331] | -0.15 | 1.39 | 1.7 | 2.89 | 4.2 µg/mL | > 25 µg/mL |  | 
CSc1ccccc1C(=O)Nc1ccc(S(=O)(=O)Nc2cccc(Cl)c2Cl)cc1 [AB00370446] | 1 | 1.32 | 3.21 | 6.57 | 4.37 µg/mL | > 25 µg/mL |  | 
CC(C)=CCC1=C(O)C(=O)c2ccccc2C1=O [AB00514453] |  |  | 3.33 | 4.47 | 7.23 µM | > 50 µM | 0.06 | 4.87
COCC(C)n1c(SC(C)C(=O)Nc2cc([N+](=O)[O-])ccc2Cl)nc2ccccc2c1=O (stereo not drawn) [AB00725538] |  |  | 4.98 | 5.56 | 6.3 µM | > 50 µM | 2.95 | 5.87
Cc1nn(-c2ccccc2)c(C)c1C(=O)C(=O)Nc1cccc(Cl)c1 [AB00785138] |  |  | 4.24 | 4.56 | 7.52 µM | > 50 µM | 1.96 | 3.87
COCCn1c(SC(C)C(=O)Nc2cccc(C(F)(F)F)c2)nc2ccccc21 (stereo not drawn) [AB00802246] |  |  | 3.98 | 4.42 | 9.58 µM | > 50 µM | 2.26 | 5.87
O=c1cnn([C@@H]2O[C@H](CO)[C@@H](O)[C@H]2O)c(=O)[nH]1 [SRI-7958] |  |  | 5.98 | 5.56 | 2.4 µM | > 50 µM | 3.58 | 5.87
CC(=O)Nc1nc(N)nc2ccc(CNc3ccc(C(=O)N[C@H](CCC(=O)O)C(=O)O)cc3)nc12 [SRI-10531] |  |  | 0.97 | -0.02 | 9.09 µM | > 50 µM | 0.16 | 0.28
